Source: patent US20180071284A1, “PREVENTING OR TREATING VIRAL INFECTION BY INHIBITION OF THE HISTONE METHYLTRANSFERASE EZH1 OR EZH2” (The United States of America, as represented by the …, priority 2015, published 2018)
“Also recorded” adds a separate entry of the source.

Key:
Assay type in all cases: cell-based, herpes simplex virus 1 (HSV-1)
HSV-1 [1] = experiment: UL29+ single neurons and neuron clusters in explanted trigeminal ganglia; settings: explant 48-hrs; compound 1 35 μM, compound 4 30 μM, ACV 100 μM, ML324 50 μM
Excerpt: (§1) Trigeminal ganglia were fixed in paraformaldehyde and tissue sections were contained with anti-UL29 and DAPI. The HSV E gene UL29 (DNA single strand binding replication protein) was used a marker for viral reactivation. Tissue sections were scored for UL29+ cell clusters (clusters indicate viral spread from the primary neuron to surrounding cells) and for individual neurons representing the primary reactivation event (single) (FIGS. 18 and 19).
as §1, with “costained” for “contained”, “(FIG. 25).” for “(FIGS. 18 and 19).”

HSV-1 [2] = experiment: HSV-1 cellular and nuclear entry (viral DNA in total and nuclear fractions of HFF cells); settings: compound 1 35 μM, compound 4 30 μM, 5-hrs pretreatment, HSV-1 2.0 PFU per cell 1.5-hrs
Procedure: HFF cells were treated with the EZH1/2 catalytic inhibitor compound 1 (35 μM), compound 4 (30 μM), or DMSO (vehicle) for 5-hrs. The HFF cells were then infected with HSV-1 (2.0 PFU per cell) for 1.5-hrs in the presence of the inhibitors or DMSO (vehicle). The levels of HSV viral DNA isolated from total and nuclear cellular fractions are expressed as ratios relative to DMSO (vehicle).

HSV-1 [3] = experiment: HSV-1 viral IE mRNA levels in infected Vero (IFN-β null, IRF3 deficient) cells; settings: 5-hrs pretreatment, HSV-1 2.0 PFU per cell
Procedure: HFF (wild-type) and Vero (IFN-β null, IRF3 deficient) cells were treated with the indicated concentration of EZH1/2 catalytic inhibitor (compound 1 or 4) or DMSO (vehicle) for 5-hrs. HFF and Vero cells were then infected with HSV-1 (2.0 PFU per cell) for 1.5-hrs in the presence of inhibitor or DMSO. The levels of HSV viral IE (ICP0, ICP4, ICP22, and ICP27) and cellular control (SP1 and TBP) mRNAs are expressed relative to cells treated with DMSO (vehicle).

HSV-1 [4] = experiment: Mouse trigeminal ganglia explant reactivation model, viral yield titrated on Vero cells; settings: explant 48-hrs; compound 1 35 μM, compound 3 30 μM, compound 4 30 μM
Procedure: Trigeminal ganglia from HSV-1 latently infected mice were bisected. Half were explanted in media with control DMSO (vehicle), and the other half were explanted in media with ACV (100 μM), ML324 (50 μM), compound 1 (35 μM), compound 3 (30 μM), or compound 4 (30 μM) for 48-hrs to induce viral reactivation. Viral yields were determined by titrating on Vero cells. Each point represents the titer of one explanted trigeminal ganglia.

HSV-1 [5] = experiment: Removal of inhibitors prior to HSV-1 infection of HFF cells (mRNA levels); settings: washed, then infected; for HSV IE expression after removal of compound prior to infection: 5-hrs treatment (compound 1 35 μM, 2 15 μM, 3 30 μM, 4 30 μM); for IL6 stimulation after removal of compound prior to infection: 5-hrs treatment
Procedure: HFF cells were treated with inhibitors targeting the catalytic SET domain (compound 1, 35 μM: EZH2; compound 2, 15 μM: EZH2 and EZH1; compound 4, 30 μM: EZH2), EED-EZH2 and EED-EZH1 (compound 3, 30 μM), or DMSO (control) for 5-hrs. Cells were then washed with phosphate buffered saline (PBS) and replaced with media with no inhibitors for the indicated time in FIGS. 21-24 prior to infection with HSV-1 (2.0 PFU per cell) for 1.5-hrs in the absence of inhibitors.

HSV-1 [6] = experiment: Spread of HSV infection in HFF cells (UL29 staining); settings: HSV-1 MOI 0.01 for 8.5-hrs, then treated for 12.5-hrs (30 μM)
Procedure: HFF cells were mock or infected with HSV-1 (MOI 0.01) for 8.5-hrs to allow one round of the viral replication program. The HFF cells were then treated with EZH1/2 inhibitor (compound 1 or compound 4 at 30 μM), viral DNA polymerase inhibitor (ACV at 100 μM), or JMJD3 inhibitor (ML324 at 50 μM) for an additional 12.5-hrs. Cells were paraformaldehyde fixed, permeabilized, and stained for the viral E gene UL29 and actin. The viral E protein UL29 was used as a marker for the spread of viral infection.
HFF cells were mock or infected with HSV-1 (MOI 0.01) for 8.5-hrs to allow one round of the viral replication program. HFF cells were then treated with EZH1/2 (compound 1, compound 4), viral DNA polymerase (ACV), or JMJD3 (ML324) inhibitors for additional 12.5-hrs. Cells were paraformaldehyde fixed, permeabilized, and stained for the viral E gene UL29 and actin (Phalloidin). The viral E protein UL29 was used as a marker for the spread of viral infection.

SMILES	primary reactivation (UL29+ single neurons) (HSV-1 [1])	HSV-1 viral entry (total and nuclear) (HSV-1 [2])	antiviral activity (HSV IE mRNA) in Vero cells as compared to HFF (wild-type) cells (HSV-1 [3])	HSV reactivation from latency (viral yield per explanted trigeminal ganglia) (HSV-1 [4])	secondary spread of HSV (UL29+ neuron clusters) (HSV-1 [1])	HSV IE expression after removal of compound prior to infection (HSV-1 [5])	IL6 stimulation after removal of compound prior to infection (HSV-1 [5])	spread of HSV infection to adjacent cells (UL29 marker) (HSV-1 [6])
Nc1nc2c(ncn2COCCO)c(=O)[nH]1 [ACV, Acyclovir]	reduced	–	–	–	–	–	–	–
CCCc1cc(C)[nH]c(=O)c1CNC(=O)c1cc(-c2ccnc(N3CCN(C)CC3)c2)cc2c1cnn2C(C)C [compound 1, GSK343]	reduced	no impact	lack of antiviral activity	block HSV reactivation from latency	reduced	recovery of HSV IE expression	decrease in IL6 stimulation	block the spread of HSV to adjacent cells; also recorded: block the spread of HSV infection
CN(C)CCCNC(=O)c1ccc(-c2cc(O)c3ncccc3c2)cc1 [ML324, N-(3-(dimethylamino)propyl)-4-(8-hydroxyquinolin-6-yl)benzamide]	reduced	–	–	–	reduced	–	–	–
CCCc1cc(C)[nH]c(=O)c1CNC(=O)c1cc(-c2ccc(N3CCN(C(C)C)CC3)nc2)cc2c1cnn2C(C)C [compound 2, UNC1999]	–	–	–	–	–	recovery of HSV IE expression	decrease in IL6 stimulation	–
COc1ccc(CCN2CCC(Nc3nc4ccccc4n3Cc3ccc(F)cc3)CC2)cc1 [compound 3, astemizole]	–	–	–	block HSV reactivation from latency	–	recovery of HSV IE expression	–	–
